Measured values reported in patent US5698580A, “Antiviral agent containing benzodithiin derivative as active ingredient” (Rational Drug Design Laboratories, priority 1994, dated 1997).
≈ marks a conversion by molar mass, not a printed value.

Columns and labels:
[1] = system: RS virus; assay: Suppression of RS virus assayed by plaque reduction method (Experimental Example 2); assay type: cell-based, RS virus Long strain; conditions: for EC50: 96 h, concentration decreasing number of plaques by 50%, HeLa cells, 35° C., 4 days; for S.I. (selectivity index, CC50/EC50): ratio of CC50 to EC50, plaque reduction method
Procedure: (§1) The confluently grown HeLa cells in 24 well flat-bottom multitrays were inoculated with RS virus Long strain prepared in a maintenance medium (Eagle's MEM medium supplemented with 2% bovine serum albumin), and the cells were incubated in a CO2 gas incubator at 35° C. for one hour. Culture solution was discarded and the cells were washed with a maintenance medium. Then, maintenance media (supplemented with 0.6% methylcellulose) containing Compound 1 or Ribavirin (control drug) at various concentrations were added, and the media were incubated in a CO2 gas incubator at 35° C. for 4 days. After the completion of the incubation, the cells were fixed with a 5% aqueous formalin solution for 6 hours and washed with tap water. Then, the cells were stained with a 0.025% aqueous crystal violet solution. The infected cell plaques which were not stained with crystal violet were microscopically counted. The plaques formed using the compound at various concentrations and those of control group without the compound were counted, and the concentration of the compound at which the number of plaques was decreased by 50% is shown as an antiviral activity (EC50). In addition, 50% cytotoxicity (CC50) of the compound was calculated by the MTT method. The ratio of CC50 to EC50 was determined as S.I. (selectivity index, CC50 /EC50).

[2] = in vitro; assay type: cell-based; conditions: human, hela cells
Procedure: as §1

[3] = system: RS virus; assay: Suppression of RS virus assayed by the MTT method (Experimental Example 1); assay type: cell-based, RS virus Long strain; conditions: for EC50: 120 h, concentration inhibiting HeLa cell destruction by RS virus infection by 50%, 35° C., 5 days, MTT; for S.I. (selectivity index, CC50/EC50): ratio of CC50 to EC50, MTT method
Procedure: (§2) After the completion of the centrifugation, the media were incubated in a CO2 gas incubator at 35° C. for 5 days. The MTT [3-(4,5-dimethylthiazol-2-yl)-2,5-diphenyltetrazolium bromide] solution was added to the media at 4 hours before the completion of the incubation, and the proportion of viable cells was colorimetrically determined on a microplate reader. The concentration of the compound at which cell destruction by RS virus infection was inhibited by 50% is shown as antiviral activity (EC50). In addition, 50% cytotoxicity value (CC50) of the compound was calculated from the tests run concurrently without inoculation of RS virus. The ratio of CC50 to EC50 was determined as S.I. (selectivity index, CC50 /EC50).

[4] = in vitro; assay type: cell-based; conditions: human, hela cells; remark: listed apart in the source
Procedure: as §2, with “Maintenance media (Eagle's MEM media supplemented with 2% bovine serum albumin) containing compounds 1-13 or Ribavirin (control drug) at various concentrations, a HeLa cell suspension prepared in advance by digestion with trypsin, and maintenance media containing RS virus Long strain were plated in 96 well round-bottom microplates, and centrifuged at a low speed (700×g) for 5 minutes at room temperature. After” for “After”

[5] = system: RS virus; conditions: background art; cited from earlier work
[6] = background art; cited from earlier work

| Structure (SMILES) | EC50 [1] [µg/mL] | S.I. (selectivity index, CC50/EC50) [1] | CC50 [2] [µg/mL] | EC50 [3] [µg/mL] | S.I. (selectivity index, CC50/EC50) [3] | CC50 at 120 h [4] [µg/mL] | effect against RS virus [5] | teratogenicity, carcinogenicity and mutagenicity [6] | toxicity [6] |
| --- | --- | --- | --- | --- | --- | --- | --- | --- | --- |
| c1ccc2c(c1)CSSC2 [Compound 1, 1,4-dihydro-2,3-benzodithiin] | 1.7 (≈ 10.1 µM) | 26.29 | 44.7 (≈ 266 µM) | 0.3 (≈ 1.78 µM) | 143.3 | 43 (≈ 256 µM) | – | – | – |
| O=[N+]([O-])c1ccc2c(c1)CSSC2 [Compound 2, 1,4-dihydro-6-nitro-2,3-benzodithiin] | – | – | – | 1.9 (≈ 8.91 µM) | 4.7 | 8.9 (≈ 41.7 µM) | – | – | – |
| Nc1ccc2c(c1)CSSC2 [Compound 3, 6-amino-1,4-dihydro-2,3-benzodithiin] | – | – | – | 3 (≈ 16.4 µM) | 1.7 | 5.1 (≈ 27.8 µM) | – | – | – |
| COC(=O)c1ccc2c(c1)CSSC2 [Compound 4, methyl 1,4-dihydro-2,3-benzodithiin-6-carboxylate] | – | – | – | 1.8 (≈ 7.95 µM) | 5.4 | 9.7 (≈ 42.9 µM) | – | – | – |
| O=C(O)c1ccc2c(c1)CSSC2 [Compound 5, 1,4-dihydro-2,3-benzodithiin-6-carboxylic acid] | – | – | – | 11.8 (≈ 55.6 µM) | 4.0 | 47.2 (≈ 222 µM) | – | – | – |
| Cc1ccc2c(c1)CSSC2 [Compound 6, 1,4-dihydro-6-methyl-2,3-benzodithiin] | – | – | – | 0.2 (≈ 1.1 µM) | 224 | 44.7 (≈ 245 µM) | – | – | – |
| c1ccc(COc2ccc3c(c2)CSSC3)cc1 [Compound 7, 6-benzyloxy-1,4-dihydro-2,3-benzodithiin] | – | – | – | > 9.6 | – | 9.6 (≈ 35 µM) | – | – | – |
| COc1ccc2c(c1)CSSC2 [Compound 8, 1,4-dihydro-6-methoxy-2,3-benzodithiin] | – | – | – | 1.6 (≈ 8.07 µM) | 8.0 | 12.8 (≈ 64.5 µM) | – | – | – |
| Fc1ccc2c(c1)CSSC2 [Compound 9, 1,4-dihydro-6-fluoro-2,3-benzodithiin] | – | – | – | 0.8 (≈ 4.29 µM) | 72.1 | 57.7 (≈ 310 µM) | – | – | – |
| Fc1cccc2c1CSSC2 [Compound 10, 1,4-dihydro-5-fluoro-2,3-benzodithiin] | – | – | – | 1.1 (≈ 5.91 µM) | > 90.9 | > 100 | – | – | – |
| Clc1ccc2c(c1)CSSC2 [Compound 11, 6-chloro-1,4-dihydro-2,3-benzodithiin] | – | – | – | 1.7 (≈ 8.39 µM) | 9.9 | 16.8 (≈ 82.9 µM) | – | – | – |
| CN(C)c1ccc2c(c1)CSSC2 [Compound 12, 1,4-dihydro-6-N,N-dimethylamino-2,3-benzodithiin] | – | – | – | 2.3 (≈ 10.9 µM) | 14.5 | 33.3 (≈ 158 µM) | – | – | – |
| CC(C)(C)c1ccc2c(c1)CSSC2 [Compound 13, 6-tert-butyl-1,4-dihydro-2,3-benzodithiin] | – | – | – | 6.5 (≈ 29 µM) | 2.3 | 15.2 (≈ 67.7 µM) | – | – | – |
| NC(=O)c1ncn([C@@H]2O[C@H](CO)[C@@H](O)[C@H]2O)n1 [Ribavirin, reference compound] | 3.7 (≈ 15.2 µM) | 27.03 | > 100 | 7.6 (≈ 31.1 µM) | 13.2 | > 100 | effective against RS virus | teratogenic, carcinogenic and mutagenic | high toxicity |
